Reference: publication PMC7311950, “Potent Tetrahydroquinolone Eliminates Apicomplexan Parasites” (Frontiers in Cellular and Infection Microbiology, 2020)
Values after ≈ are worked out from the molar mass of the structure shown.

How the values were obtained:
P. berghei sporozoites = tested on: P. berghei sporozoites; design: method as in Doggett et al., 2012; Frueh et al., 2017; conditions: doses between 1 and 20 mg/kg, not the prodrug; ref Doggett et al., 2012; Frueh et al., 2017; cited from earlier work
[1] = tested on: T. gondii RH-YFP tachyzoites; assay: In vitro challenge assay, RH strain YFP tachyzoites in HFF; format: cell-based; conditions: Toxoplasma gondii; RH-YFP tachyzoites in HFF; Figure 1A; read-out: Tachy IC50
Protocol: RH strain YFP Tachyzoites. Protocol was adapted from Fomovska et al. ([2012a],[b]) for HFF. HFF were cultured on a flat, clear-bottomed, black 96-well plate to 90–100% confluence. IMDM (1x, [+] glutamine, [+] 25 mM HEPES, [+] Phenol red, 10% FBS [Gibco, Denmark]) was removed and replaced with IMDM-C(1x, [+] glutamine, [+] 25 mM HEPES, [–] Phenol red, 10% FBS)[Gibco, Denmark]). RH-YFP, lysed from host cells by passing twice through a 27-gauge needle, were counted, then diluted to 32,000/mL in IMDM-C. HFF were infected with 3200 RH-YFP, then returned to 37°C, CO2 (5%) incubator for 1–2 h for infection. Various concentrations of the compounds in 20 μL IMDM-C were added to each well. There were triplicates for each condition. Controls were pyrimethamine/sulfadiazine (standard treatment), 0.1% DMSO only, HFF only, and untreated cultures of HFF infected with 2-fold dilutions of YFP expressing parasites (called “YFP gradient” to establish amount of color from known numbers of YFP expressing parasites). Cells were incubated at 37°C for 72 h. Plates were read using a fluorimeter (Synergy H4 Hybrid Reader, BioTek) to ascertain amount of relative fluorescence units (RFU) YFP, to measure parasite burden after treatment. Data were collected using Gen5 software with IC50 calculated by graphical analysis in Excel.
An initial screening assay of 10 μM, 1 μM, 100 nM, and 10 nM of the compounds was performed. Compounds were not considered effective or pursued for further analysis if there was no inhibition of tachyzoites at 1 μM. If compounds were effective at 1 μM, another experiment was performed to assess effect at 1 μM, 500, 250, 125, 62.5, and 31.25 nM.

[2] = Kinetic solubility in PBS pH 7.4 (Chem Partners); conditions: PBS, pH 7.4, aqueous buffer, kinetic from dmso stock
Protocol: The effects of changing R1 as 7-Et, 7-Me, 6-CF3, or 6-Me on activity against RH strain tachyzoites, kinetic solubility, and metabolic stability were compared. Kinetic solubility and metabolic stability in human or murine liver microsomes were measured. The hERG (human Ether-à-go-go-Related) liability was also determined. The hERG gene (KCNH2) encodes a protein Kv11.1, the alpha subunit of a potassium ion channel. This channel conducts the rapid component of the delayed rectifier potassium current, IKr, which is critical for repolarization of cardiac action potentials. A reduction in hERG currents from adverse drug effects can lead to long QT interval syndromes. These syndromes are characterized by action potential prolongation, lengthening of the QT interval on surface EKG, and an increased risk for “torsade de pointes” arrhythmias and sudden death. The MDCK-MDR1 Permeability Assay was also performed. MDCK-MDR1 refers to the ability of a compound to permeate across membranes of MDCK-MDR1 (Madin Darby canine kidney [MDCK] cells with the MDR1 gene [ABCB1], the gene encoding for the efflux protein, P-glycoprotein (P-gp)) in vitro. Assessing transport in both directions (apical to basolateral and basolateral to apical) across the cell monolayers enables an efflux ratio to be determined. […] This provides a prediction of blood brain barrier (BBB) penetration potential/permeability and efflux ratio. Effect in CACO-2 (Colon Adenocarcinoma cells) as a permeability assay and on cytochrome P450 (CYP 450) were also determined. CYP enzymes catalyze oxidative biotransformation (phase 1 metabolism) of most drugs. CYP enzymes, bind to membranes in a cell (cyto) and contain a heme pigment (chrome and P) that absorbs light at a wavelength of 450 nm when exposed to carbon monoxide. Metabolism of a drug by CYP enzymes is a major source of variability in drug effect. These were measured by Chem Partners. The relative effect on HFF and parasite enzymes also were compared.

[3] = target: T1, P. falciparum bc1 complex cytochrome c reductase (Pfbc1) (Plasmodium falciparum, UniProt Q02768); assay: Pfbc1 native assay (cytochrome c reduction by parasite extract); format: biochemical; conditions: atovaquone 1 μM positive control, X ± S.D., N = 4
T1 construct: Parasite extract was then prepared by disruption with a sonicating probe; endogenous in cells; host or cells: P. falciparum strain 3D7 blood-stage culture, sonicated parasite extract
T1 sequence (Q02768 1-376): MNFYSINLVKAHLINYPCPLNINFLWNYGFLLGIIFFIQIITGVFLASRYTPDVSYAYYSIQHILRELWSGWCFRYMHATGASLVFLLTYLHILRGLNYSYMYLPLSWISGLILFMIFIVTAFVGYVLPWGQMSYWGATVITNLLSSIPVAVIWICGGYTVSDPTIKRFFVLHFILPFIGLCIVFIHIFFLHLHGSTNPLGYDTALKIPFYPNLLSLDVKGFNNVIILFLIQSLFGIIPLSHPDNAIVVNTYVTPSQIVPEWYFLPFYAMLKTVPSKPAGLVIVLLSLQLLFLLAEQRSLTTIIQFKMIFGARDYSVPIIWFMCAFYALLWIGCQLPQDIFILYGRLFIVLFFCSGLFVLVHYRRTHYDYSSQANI
Protocol: P. falciparum 3D7 strain were obtained from the Liverpool School of Tropical Medicine. Protease cocktail inhibitor was obtained from Roche. Bradford protein assay dye reagent was obtained from Bio-Rad. All other reagents were obtained from Sigma-Aldrich. Decylubiquinol was produced as per Fisher et al. ([2009]). In brief, 25 mg of decylubiquinone were dissolved in 400 μL of nitrogen-saturated hexane. An equal volume of aqueous 1 M sodium dithionite was added, and the mixture vortexed until colorless. The organic phase containing the decylubiquinol was collected, the solvent was evaporated under N2 and the decylubiquinol finally dissolved in 100 μL of 96% ethanol (acidified with 10 mM HCl). Concentrations of decylubiquinol was determined spectrophotometrically on a Cary 300 Bio UV/visible spectrophotometer (Varian, UK) from absolute spectra, using ε288−−320 = 8.1 mM^−1.cm^−1. Decylubiquinol was stored at −80°C and used within 2 weeks. […]
The protocol for the preparation of parasite extract was adapted from Fisher et al. ([2009]). […] The protein concentration of the parasite extract was determined by Bradford protein assay (Bio-Rad).
P. falciparum bc1 complex cytochrome c reductase (Pfbc1) activity was measured by monitoring cytochrome c reduction at 550 vs. 542 nm using a Cary 300 Bio UV-Visible Spectrophotometer (Varian, UK), using a protocol adapted from Fisher et al. ([2009]). […]

SMILES | efficacy in the in vivo malaria model (P. berghei sporozoites) | IC50 [1] [nM] | solubility kinetic [2] [µM] | inhibition at 1 µM [3] [%]
COc1cc2[nH]c(C)c(-c3ccc(Oc4ccc(OC(F)(F)F)cc4)cc3)c(=O)c2cc1Cl [ELQ 300] | not effective | – | – | –
O=c1c2c([nH]c(CO)c1-c1ccc(Oc3ccc(OC(F)(F)F)cc3)cc1)CCCC2 [JAG099] | – | 380 | 4.05 (≈ 1.75 µg/mL) | 81.3 ± 6
